Laboratory results reported in ChEMBL document CHEMBL1123900, “Thienothiopyran-2-sulfonamides: a novel class of water-soluble carbonic anhydrase inhibitors” (J Med Chem, 1987).
Converted amounts (≈) assume the structure as drawn.

Experiments:
[1] = molecular target: T1, Carbonic anhydrase 2 (Homo sapiens, UniProt P00918)
Description: In vitro inhibition against purified human erythrocyte carbonic anhydrase II was determined (acetozolamide used as control.)

[2] = pKa value in 30% EtOH-H20; format: physicochemical; details: 30% EtOH-H2O
[3] = molecular target: T1, Carbonic anhydrase 2; remark: listed apart in the source
Description: In vitro binding to human erythrocyte Carbonic anhydrase II was determined by fluorescence competition assay employing the fluorescent CA inhibitor dansylamide

[4] = Total solubility measured on pH 7.4 buffer at 25 degree C; format: ADME; details: read-out: S
[5] = molecular target: T1, Carbonic anhydrase 2; remark: listed apart in the source
Description: In vitro binding to human erythrocyte carbonic anhydrase was determined by fluorescence competition assay employing the fluorescent CA inhibitor dansylamide

[6] = Solubility (pH 7.4 buffer ar 25 degree C); format: physicochemical; details: read-out: S
[7] = Partition coefficient determined in 1-octanol buffer pH 7.4; format: physicochemical; details: octanol/water

NS(=O)(=O)c1cc2c(s1)C(=O)CCS2
IC50 [1]: 3.5 nM
pKa [2]: 8.45
Ki [3]: 1.15 nM
solubility [4]: 80 µg/mL (≈ 0.321 mM)

NS(=O)(=O)c1cc2c(s1)C(O)CC[S+]2[O-] (configuration not stated)
Ki [5]: 309 nM
solubility [6]: 7200 µg/mL (≈ 26.9 mM)
IC50 [1]: 250 nM
pKa [2]: 8.82

NS(=O)(=O)c1cc2c(s1)CC(O)CS2(=O)=O (configuration not stated)
Partition coefficient [7]: 0.2
Ki [5]: 18.2 nM
solubility [6]: 7300 µg/mL (≈ 25.8 mM)
IC50 [1]: 40 nM
pKa [2]: 8.52

NS(=O)(=O)c1cc2c(s1)SCCC2O (configuration not stated)
solubility [6]: 640 µg/mL (≈ 2.55 mM)
IC50 [1]: 30 nM
pKa [2]: 9.4
Ki [3]: 28 nM

NS(=O)(=O)c1cc2c(s1)C(=O)CCS2(=O)=O
Partition coefficient [7]: 0.63
solubility [6]: 60 µg/mL (≈ 0.213 mM)
IC50 [1]: 22 nM
pKa [2]: 7.32
Ki [3]: 14.1 nM

NS(=O)(=O)c1cc2c(s1)SCCC2=O
solubility [6]: 70 µg/mL (≈ 0.281 mM)
IC50 [1]: 8.5 nM
pKa [2]: 8.6
Ki [3]: 3.63 nM

NS(=O)(=O)c1cc2c(s1)[S+]([O-])CCC2O (configuration not stated)
Ki [5]: 104 nM
solubility [6]: 12000 µg/mL (≈ 44.9 mM)
IC50 [1]: 100 nM
pKa [2]: 8.68

NS(=O)(=O)c1cc2c(s1)S(=O)(=O)CC[C@H]2O
Partition coefficient [7]: 0.42
solubility [6]: 6300 µg/mL (≈ 22.2 mM)
pKa [2]: 8.35

NS(=O)(=O)c1cc2c(s1)S(=O)(=O)CC[C@@H]2O
Partition coefficient [7]: 0.42
solubility [6]: 6400 µg/mL (≈ 22.6 mM)
pKa [2]: 8.3

CC(C)(C)C(=O)Oc1ccc2nc(S(N)(=O)=O)sc2c1
solubility [6]: 58 µg/mL (≈ 0.184 mM)

NS(=O)(=O)c1cc2c(s1)S(=O)(=O)CCC2O (configuration not stated)
Partition coefficient [7]: 0.45
solubility [6]: 12500 µg/mL (≈ 44.1 mM)
pKa [2]: 8.35

NS(=O)(=O)c1cc2c(s1)S(=O)(=O)CCC2
Ki [5]: 3.3 nM
solubility [6]: 560 µg/mL (≈ 2.09 mM)
IC50 [1]: 4.5 nM
pKa [2]: 8.35

NS(=O)(=O)c1cc2c(s1)S(=O)(=O)CCC2=O
Partition coefficient [7]: 0.92
solubility [6]: 270 µg/mL (≈ 0.96 mM)
IC50 [1]: 5 nM
pKa [2]: 7.92

NS(=O)(=O)c1cc2c(s1)C(O)CCS2(=O)=O (configuration not stated)
solubility [6]: 15000 µg/mL (≈ 52.9 mM)
IC50 [1]: 40 nM
pKa [2]: 8.34
Ki [3]: 30.5 nM

NS(=O)(=O)c1cc2c(s1)S(=O)(=O)CC(O)C2 (configuration not stated)
Ki [5]: 7.11 nM
solubility [6]: 8200 µg/mL (≈ 28.9 mM)
IC50 [1]: 10 nM
pKa [2]: 8.6

NS(=O)(=O)c1cc2c(s1)C(O)CCS2 (configuration not stated)
Partition coefficient [7]: 3
solubility [6]: 1400 µg/mL (≈ 5.57 mM)
IC50 [1]: 23 nM
pKa [2]: 9
Ki [3]: 14.2 nM

CCOc1ccc2nc(S(N)(=O)=O)sc2c1 [ETHOXZOLAMIDE]
solubility [6]: 24 µg/mL (≈ 0.0929 mM)
